Measurements published in patent US9980910B2, “Enteric-coated sodium metabisulfite livestock feed additive for vomitoxin detoxification” (priority 2010, dated 2018).

Legend:
[1] = tested on: 25-50 lb pigs fed vomitoxin-contaminated corn; settings: P<0.01
[2] = tested on: 66-278 lbs pigs; experiment: Growth performance of 66-278 lbs pigs fed sodium metabisulfite in clean diets (F6_G07_01); type: in vivo; settings: level increased from 0 to 0.5 to 1.0% in non-vomitoxin contaminated diets
From the text: The data presented in Table 2 confirms that toxic effects begin to occur between 0 and 0.5% sodium metabisulfite in the diet.

[3] = tested on: pigs; settings: feeding to pigs; cited from earlier work
[4] = Destruction of vomitoxin by sodium metabisulfite in vitro at two pH levels
Protocol: Sodium metabisulfite was tested for its ability to destroy vomitoxin in vitro at different pH levels. […] For example, when tested at 10 lb/ton, sodium metabisulfite destroyed 70% of the measurable vomitoxin at pH 6.5, but none at pH 3.0. At 20 lbs/ton sodium metabisulfite destroyed over 97% of the vomitoxin at pH 6.5 but only 41% at pH 3.0. Destruction levels less than 10% are considered to be random variation in this assay and not related to treatment. […] Although the levels of sodium metabisulfite required to destroy vomitoxin in this in vitro assay are higher than the “safe” level of 0.35% determined in a previous referenced feeding trial in pigs, other studies (Tables 1 and 3) clearly show positive effects of sodium metabisulfite at levels of 0.125 to 0.25% in vomitoxin-contaminated diets.

[5] = tested on: pigs; settings: cited from earlier work
[6] = vomitoxin-contaminated diet, 5 to 20 lbs/ton of diet (0.25 to 1.0%)
[7] = diet containing approximately 5 ppm vomitoxin, 25-55 lb pigs

SMILES: O=S([O-])S(=O)(=O)[O-].[Na+].[Na+] [sodium metabisulfite, Sodium metabisulfite]
- Average daily feed intake (ADFI) (effect in words) [1, 6]: improves
- Average daily gain (ADG) (effect in words) [1, 6]: improves
- Average daily feed intake (effect in words) [2]: linearly reduced
- "no-effect" level (no toxic effects) [3]: 0.35 % of the diet
- % destruction of vomitoxin ([4]; pH 3.0, metabisulfite 2.5 lbs/ton): 4.2%
- % destruction of vomitoxin ([4]; pH 3.0, metabisulfite 5 lbs/ton): 0.9%
- % destruction of vomitoxin ([4]; pH 3.0, metabisulfite 20 lbs/ton): 41%
- % destruction of vomitoxin ([4]; pH 6.5, metabisulfite 2.5 lbs/ton): 0.0%
- % destruction of vomitoxin ([4]; pH 6.5, metabisulfite 5 lbs/ton): 0.0%
- % destruction of vomitoxin ([4]; pH 6.5, metabisulfite 10 lbs/ton): 70%

SMILES: CC1=C[C@H]2O[C@@H]3[C@H](O)C[C@](C)([C@@]2(CO)[C@H](O)C1=O)[C@]31CO1 [Vomitoxin, deoxynivalenol]
- Vomitoxin level resulting in complete feed refusal, vomiting, immune suppression, and gastrointestinal lesions [5]: above 5 ppm
- Reduction of daily feed intake [1, 7]: 20%
- Reduction of growth rate [1, 7]: 15%
